{"source": "patent US20130191934A1", "about": "“TREATMENT OF SYMPTOMS ASSOCIATED WITH MENOPAUSE” (INDIANA UNIVERSITY RESEARCH AND TECHNOLOGY CORPORA, priority 2010, published 2013)", "key": {"ORX1 and ORX2 receptors": {"test_system": "ORX1 and ORX2 receptors", "details": "cited from earlier work"}, "[1]": {"details": "under investigation for insomnia; cited from earlier work"}, "OVEX'ed rats": {"test_system": "OVEX'ed rats", "details": "cited from earlier work; for anxiety behaviors in the elevated plus maze (EPM) and open field tests (OFT): OVEX'ed rats; for block of the anxiety induced by OVEXing a female rat: daily s.c.: E2 0.25 mg/kg, DPN 1.0 mg/kg, PPT 1.0 mg/kg, Walf et al., 2010"}, "[2]": {"test_system": "female ovariectomized, or sham-OVEX control, rats", "assay": "Hypercapnia (20% CO2) challenge, tail skin temperature in OVEX rats", "type": "in vivo, rat", "details": "30 mg/kg pretreatment", "source_text": "Hypercapnia model: There is also evidence that altered respiration patterns may trigger hot flashes whereas paced respiration may alleviate hot flash incidence and intensity. Increased or decreased respiration activity alters blood CO2/pH levels, and a hypersensitivity to CO2/pH may be present in conditions where estrogen activity is very low."}, "panic-prone rats": {"test_system": "panic-prone rats", "assay": "Sodium lactate challenge in panic-prone (l-allylglycine) rats", "type": "in vivo, rat", "details": "for anxiety-like responses (social interaction duration) after sodium lactate: 30 mg/kg i.p. before 15 min i.v. 0.5M sodium lactate, FIG. 1b; for lactate induced increases in core body temperature / lactate induced increases in heart rate: 30 mg/kg i.p.; for lactate induced increases in core body temperature: FIG. 1c; for lactate induced increases in heart rate: FIG. 1d", "source_text": "Panic disorder is associated with disruption of central inhibitory gamma-aminobutyric acid (GABAergic) tone, and may contribute to panic attacks which are consistently provoked by ordinarily mild physical stressors such as mild osmotic disturbances (e.g., intravenous sodium lactate challenges).\nOrexin/hypocretin producing neurons are almost exclusive to dorsomedial hypothalamus and adjacent lateral hypothalamus, and play a critical role in maintaining wakefulness, vigilance and central sympathetic mobilization, which are key components of panic and anxiety. Experiments were conducted to investigate whether the administration of either a systemic orexin 1 antagonist or silencing the hypothalamic orexin gene product with RNA interference could block lactate-induced panic responses."}, "[3]": {"details": "30 mg/kg intraperitoneal; cited from earlier work"}, "[4]": {"test_system": "adult female rats (OVEX or tamoxifen)", "assay": "Open field anxiety test in tamoxifen-treated or ovariectomized female rats", "type": "in vivo, rat", "details": "for anxiety-like behavior (time spent in center of open field) in OVEX rats: 30 mg/kg i.p. 30 min prior to testing, OVEX female rats, FIG. 3B", "procedure": "FIG. 3A & 3B are bar graphs showing the effects of subcutaneously injecting adult female rats with 3 days of vehicles (10% DMSO, 90% sesame oil) or 10 mg/kg tamaoxifen (a nonselective estrogen receptor antagonist) on time spent in the center of an open field. * represents p,0.05 with unpaired t-test. n=6/group. […] Bars represent mean and error bars represent SEM. * represents p,0.05 Mann Whitney U test following an ANOVA f(3,35)=2.9, p=0.048.\nFurthermore, experiments were conducted to investigate the impact of lowering estrogen activity by either administering tamoxifen or ovariectomizing rats."}, "[5]": {"test_system": "dorsomedial hypothalamus (DMH) of anesthetized rat", "assay": "BMI microinjection into the DMH of anesthetized rats", "type": "in vivo", "details": "30 mg/kg i.p.; BMI 20 pmol/50 nL into DMH; FIG. 2; listed as SB334861", "procedure": "FIG. 2 Continuous and simultaneous measurement of blood pressure (top panel), heart rate (middle panel), and core body temperature (bottom panel) in an isoflurane anesthetized rat after identical microinjections of BMI (20 pmol/50 nL) into the DMH (time marks 1 and 3) before and after systemic administration of the orexin-1 receptor antagonist SB334861 (30 mg/kg i.p.; time mark 2).\nAs disclosed herein, experiments were conducted to determine whether an orexin-1 receptor antagonist (SB334861) or an orexin-2 receptor antagonist (TCSOX229) could attenuate the physiologic responses to chemical stimulation of the DMH. Chemical stimulation or disinhibition of neurons in the region of the dorsomedial hypothalamus (DMH) was conducted using the GABAA receptor antagonist bicuculline methiodide (BMI). To test orexin inhibitors ability to attenuate the BMI stimulated response, BMI was microinjected (20 pmol/50 nL) into the DMH of urethane-anesthetized rats both before and after systemic administration of the orexin inhibitor, and the responses were monitored."}, "menopausal women": {"test_system": "menopausal women", "details": "cited from earlier work"}, "ORX-ir neurons": {"test_system": "ORX-ir neurons", "assay": "c-Fos induction in ORX-ir neurons after yohimbine", "type": "in vivo, rat", "details": "5 mg/kg i.p.; male rats; FIG. 5A", "source_text": "(§1) FIG. 5A & 5B are graphs showing the effects of yohimbine on cellular responses. […] Black and gray outlined bars respectively represent c-FOS/ORX double and total ORX-ir labeled neurons in the hypothalamus. *Mann-whiney U=1.5, p=0.001. […] Treatment by time effect F(89,267)=2.7, p<0.001.\n(§2) Conversely, administering intravenous infusions of yohimbine (alpha2-adrenergic autoreceptor antagonist) to symptomatic, but not asymptomatic, menopausal women provokes “hot flashes” (Freedman et al, Obstet Gynecol, 1990. 76(4): p. 573-8). […] A dramatic drop in core body temp also immediately follows this, which also occurs in women following the onset of a hot flash."}, "[6]": {"test_system": "female ovariectomized rats", "assay": "Yohimbine challenge, tail skin and core body temperature in OVEX rats", "type": "in vivo, rat", "details": "5 mg/kg i.p.", "procedure": "as §1\nTo objectively measure “hot flash” (assessed by tail temp) related activity in female OVEX rats, magnetically activated radiotelemetry probes (dimensions: 3.5 cc volume with 0.05° C. resolution) were implanted subcutaneously under the skin on the back of rat. The probe has 2 leads, each with an ˜1 cm long temp sensor that can be implanted in the tail and into the abdominal cavity to respectively measure skin and core body temp (as well as general ambulatory activity) in freely moving rats for extended periods. Recently we used the dual thermistor probes and were able to replicate previous findings that tail temp decreases during active phase in sham-OVEX rats, but this decrease is blunted in OVEX rats (FIG. 4B).\nas §2"}, "[7]": {"details": "OVEX rats, 5 min 20% CO2, FIG. 6B"}, "[8]": {"details": "listed as orexin 1 receptor antagonist"}}, "note": "“Also recorded” adds a separate entry of the source."}
{"compound": "CNC(=O)[C@@H](c1ccccc1)N1CCc2cc(OC)c(OC)cc2[C@@H]1CCc1ccc(C(F)(F)F)cc1", "note": "[Almorexant]", "values": [{"measurement": "mode of orexin receptor antagonism", "setting": "ORX1 and ORX2 receptors", "value": "competitive, dual ORX1 and ORX2 receptor antagonists"}, {"measurement": "safety and side effects in phase III trials", "setting": "[1]", "value": "safe, have few side effects"}]}
{"compound": "N#CC(Cc1ccc(O)cc1)c1ccc(O)cc1", "note": "(stereo not drawn) [DPN, diarylpropionitrile]", "values": [{"measurement": "anxiety behaviors in the elevated plus maze (EPM) and open field tests (OFT)", "setting": "OVEX'ed rats", "value": "decreased anxiety behaviors"}, {"measurement": "block of the anxiety induced by OVEXing a female rat", "setting": "OVEX'ed rats", "value": "block the anxiety"}]}
{"compound": "C[C@]12CC[C@@H]3c4ccc(O)cc4CC[C@H]3[C@@H]1CC[C@@H]2O", "note": "[E2, 17-β-estradiol]", "values": [{"measurement": "anxiety behaviors in the elevated plus maze (EPM) and open field tests (OFT)", "setting": "OVEX'ed rats", "value": "decreased anxiety behaviors"}, {"measurement": "block of the anxiety induced by OVEXing a female rat", "setting": "OVEX'ed rats", "value": "block the anxiety"}]}
{"compound": "Cc1ccc(-n2nccn2)c(C(=O)N2CCN(c3nc4cc(Cl)ccc4o3)CC[C@H]2C)c1", "note": "[MK4305]", "values": [{"measurement": "mode of orexin receptor antagonism", "setting": "ORX1 and ORX2 receptors", "value": "competitive, dual ORX1 and ORX2 receptor antagonists"}, {"measurement": "safety and side effects in phase III trials", "setting": "[1]", "value": "safe, have few side effects"}]}
{"compound": "CCCc1c(-c2ccc(O)cc2)nn(-c2ccc(O)cc2)c1-c1ccc(O)cc1", "note": "[PPT, Tris(4-hydroxyphenyl)-4-propyl-1Hpyrazole]", "values": [{"measurement": "anxiety behaviors in the elevated plus maze (EPM) and open field tests (OFT)", "setting": "OVEX'ed rats", "value": "increase anxiety behaviors"}, {"measurement": "block of the anxiety induced by OVEXing a female rat", "setting": "OVEX'ed rats", "value": "not"}]}
{"compound": "Cc1nc2ccc(NC(=O)Nc3ccnc4cccnc34)cc2o1", "note": "[SB334867, 1-(2-methylbenzoxazol-6-yl)-3-[1,5]naphthyridin-4-yl urea]", "values": [{"measurement": "intensity of the hot flash (tail skin temperature) after 20% CO2", "setting": "[2]; [7]", "value": "reduces the intensity"}, {"measurement": "onset of the hot flash (tail skin temperature) after 20% CO2", "setting": "[2]; [7]", "value": "delays the onset"}, {"measurement": "baseline levels of tail temp in controls", "setting": "[2]; sham-OVEX controls", "value": "reduced baseline levels of tail temp"}, {"measurement": "anxiety-like responses (social interaction duration) after sodium lactate", "setting": "panic-prone rats", "value": "Blocks; also recorded: attenuated"}, {"measurement": "anxiety-like responses (social interaction duration) after sodium lactate", "setting": "panic-prone rats; [8]", "value": "blocks"}, {"measurement": "lactate induced increases in core body temperature", "setting": "panic-prone rats", "value": "block; also recorded: attenuated"}, {"measurement": "lactate induced increases in core body temperature", "setting": "panic-prone rats; [8]", "value": "blocks"}, {"measurement": "lactate induced increases in heart rate", "setting": "panic-prone rats", "value": "attenuated"}, {"measurement": "lactate induced increases in heart rate", "setting": "panic-prone rats; [8]", "value": "blocks"}, {"measurement": "crossing of blood brain barrier", "setting": "[3]", "value": "crosses blood brain barrier"}, {"measurement": "duration of central activity", "setting": "[3]", "value": "> 4", "unit": "h"}, {"measurement": "anxiety-like behavior (time spent in center of open field) in OVEX rats", "setting": "[4]", "value": "reverses anxiogenic effects"}, {"measurement": "anxiety-like behavior (time spent in center of open field) in OVEX rats", "setting": "[4]; listed as ORX 1 receptor antagonist", "value": "reverse the anxiogenic effects of OVEX"}, {"measurement": "BMI-evoked increase in blood pressure", "setting": "[5]", "value": "significant attenuation"}, {"measurement": "BMI-evoked increase in core body temperature", "setting": "[5]", "value": "significant attenuation"}, {"measurement": "BMI-evoked increase in heart rate", "setting": "[5]", "value": "significant attenuation"}]}
{"compound": "Cc1nnc2n1-c1ccc(Cl)cc1C(c1ccccc1)=NC2", "note": "[alprazolam]", "values": [{"measurement": "lactate-induced responses versus vehicle treated groups (Fisher's LSD, p<0.05)", "setting": "panic-prone rats; alprazolam 3 mg/kg i.p., FIG. 1", "value": "significant differences"}]}
{"compound": "Clc1cccc(Cl)c1N=C1NCCN1", "note": "[clonidine]", "values": [{"measurement": "incidence of hot flashes in menopausal women", "setting": "menopausal women; Freedman et al, 1990", "value": "reduce the incidence"}]}
{"compound": "CC/C(=C(\\c1ccccc1)c1ccc(OCCN(C)C)cc1)c1ccccc1", "note": "[tamoxifen]", "values": [{"measurement": "anxiety-like behavior (time spent in center of open field) compared to controls", "setting": "[4]; tamoxifen 10 mg/kg s.c., 3 days, adult female rats, FIG. 3A", "value": "increased anxiety-like behavior"}]}
{"compound": "COC(=O)[C@@H]1[C@H]2C[C@H]3c4[nH]c5ccccc5c4CCN3C[C@@H]2CC[C@@H]1O", "note": "[yohimbine]", "values": [{"measurement": "cellular responses (c-Fos induction) in ORX neurons", "setting": "ORX-ir neurons", "value": "increase cellular activity in ORX neurons"}, {"measurement": "provocation of hot flashes", "setting": "menopausal women; intravenous infusions, symptomatic, but not asymptomatic, menopausal women", "value": "provokes"}, {"measurement": "tail skin temperature", "setting": "[6]; female OVEX vs sham-OVEX rats, FIG. 5B", "value": "rapidly increase tail skin temp in female OVEX, but not sham OVEX control rats"}, {"measurement": "core body temp following tail skin temp increase", "setting": "[6]; yohimbine challenge", "value": "dramatic drop"}]}
